Assay results from patent US20060166999A1, “Use of microsomal triglyceride transfer protein (MTP) inhibitors for reducing the number of postprandial triglyceride-rich lipoprotein particles (PPTRL)” (Bayer Aktiengesellschaft, priority 2000, published 2006).

How the values were obtained:
[1] = test system: ApoE-knockout mice; assay: Long-term feeding experiment with ApoE-knockout mice; format: in vivo; settings: ApoE-knockout mice on fat-containing Western diet; 5 ppm with the feed; after 13 months; over half of the untreated mice were dead
Method: Long-Term Feeding Experiment with ApoE-Knockout Mice
ApoE-knockout mice received a fat-containing diet (0.15% cholesterol, 21.4% crude fat, 19% casein; “Western diet”). The compound of Example 48 was administered in a proportion of 5 ppm with the feed to the treated group, while the control group received the food without active ingredient. After 13 months, over half of the untreated mice were dead, whereas 23 of 25 animals in the treated group were still alive.
It is known from the literature that the ApoE-knockout mice used die from myocardial infarctions and manifestations of neuronal degeneration [Caligiuri, G., et al., Proc. Natl. Acad. Sci. USA, 96, 6920-6924 (1999); Walker, L. C. Am. J. Pathol., 151, (5), 1371-1377 81997)].

[2] = test system: atherosclerotic plaques; settings: mouse test; Zaiss et al., Circulation 100 (18, Suppl. I):258 Abstr. 1343 (1999); cited from earlier work

Compound | animals in the treated group still alive [1] | formation of atherosclerotic plaques [2]
Cc1cc(C)c2c3ccccc3n(Cc3ccc([C@@H](C(=O)N[C@@H](CO)c4ccccc4)C4CCCC4)cc3)c2n1 [Example 48, (2S)-2-Cyclopentyl-2-[4-(2,4-dimethyl-pyrido[2,3-b]indol-9-ylmethyl)-phenyl]-N-(2-(1R)-hydroxy-1-phenyl-ethyl)-acetamide] | 23 of 25 | 
implitapide |  | prevents the formation of atherosclerotic plaques
